Reference: patent US20250275946A1, “COMBINATION THERAPY FOR THE TREATMENT OF CANCER” (UNM RAINFOREST INNOVATIONS, priority 2021, published 2025)
Where two headings read alike, the source gives them in different places.

Columns and labels:
[1] = system: xenografts from MC38 cells; assay: Subcutaneous MC38 xenograft combination therapy in C57BL/6 mice; type: in vivo; settings: 20 mg/kg DFX every other day, 1 mg/kg 5-FU daily, or combination, FIG. 7R
Description: For subcutaneous xenograft study, 1×10^6 syngeneic MC38 cells with Tfrc or Pold1 knockdown were injected into the flanks of C57BL/6 mice. Two weeks later, mice were sacrificed and tumors were collected. For combination therapy, when tumors are palpable at one week after subcutaneous injection of MC38 cells, C57BL/6 mice were treated with vehicle, 20 mg/kg DFX for every other day, 1 mg/kg 5-fluorouracil (5-FU) daily, or the combination of DFX and 5-FU.

MC38 cells [2] = assay: Immunoblotting analysis in MC38 cells; type: cell-based, murine; settings: MC38, 10 μM DFX and/or 10 μM 5-FU, 48 hours, FIG. 7Q
Description: (§1) Human HCT116, RKO, SW480, HEK293T and murine MC38 CRC cells were maintained at 37° C. in 5% CO2 and cultured in Dulbecco's modified Eagle medium (DMEM) supplemented with 10% fetal bovine serum (FBS) and 1% penicillin and streptomycin (VWR, Radnor, PA). HCT116 p53+/+ and p53−/− cells were a kind gift from Professor Bert Vogelstein at the Johns Hopkins University. For generating stable cell lines, MC38 cells were transfected with a mouse shTFRC plasmid (TRCN0000375695, Sigma, St. Louis, MO) or a mouse shPOLD1 plasmid (TRCN0000428858, Sigma), RKO cells were transfected with a human shPOLD1 plasmid (TRCN0000007924, Sigma) and selected with 1 μg/ml puromycin.
Cells and tumor tissues were lysed with radioimmunoprecipitation assay buffer. After incubation, cell extracts were centrifuged and the supernatant was collected for Bradford assay to quantify protein concentration by a BioTek Synergy HTX Multi-Mode Microplate Reader (BioTek, Winooski, VT). Equal amounts (20-50 μg) of protein were loaded for sodium dodecyl sulfate polyacrylamide gel electrophoresis (SDS-PAGE). The proteins inside the gels were transferred onto nitrocellulose membrane with a wet transfer method. The membranes were blocked with 3% milk for 1 hour. Primary antibodies were incubated overnight. Secondary antibodies were incubated for 1 hour. […]

MC38 cells [3] = assay: MTT assay in MC38 cells; type: cell-based, murine; settings: MC38, 10 μM DFX and/or 10 μM 5-FU, 48 hours, FIG. 7P
Description: as §1
(§2) Cells were plated at a concentration of 5×10^4 cells/mL in a 24 well plates. 125 μL 5 mg/mL MTT (Sigma, MO) was added to each plate and incubated for 30 min. Dimethyl sulfoxide (DMSO) was added and absorbance was measured at 570 nm using a BioTek Synergy HTX Multi-Mode Microplate Reader.

[4] = system: HCT116, SW480 or RKO cancer cells; assay: Immunoblotting analysis in human colon-derived cancer cells; type: cell-based
Description: as §1
Cells and tumor tissues were lysed with radioimmunoprecipitation assay buffer. After incubation, cell extracts were centrifuged and the supernatant was collected for Bradford assay to quantify protein concentration by a BioTek Synergy HTX Multi-Mode Microplate Reader (BioTek, Winooski, VT). Equal amounts (20-50 μg) of protein were loaded for sodium dodecyl sulfate polyacrylamide gel electrophoresis (SDS-PAGE). The proteins inside the gels were transferred onto nitrocellulose membrane with a wet transfer method. The membranes were blocked with 3% milk for 1 hour. Primary antibodies were incubated overnight. Secondary antibodies were incubated for 1 hour. Antibodies for ferritin heavy chain (FTH1, #3998), IRP2 (#37135), active beta catenin (#8814), Anti-rabbit IgG HRP-linked Antibody (#7074) and Anti-mouse IgG HRP-linked Antibody (#7076) were from Cell signaling Technology (Danvers, MA). Primary antibodies for TFRC (sc-393719), HIF-1α, (sc-13515), HIF-2a (sc-13596), pS6 (sc-514033), pS6K (sc-8418), RRM2 (sc-398294), p-p53 (sc-377567), p53 (sc-6243), c-MYC (sc-40), GAPDH (sc-47724), Cyclin D1 (sc-718) and Actin (sc-8432) were from Santa Cruz Biotechnology (Dallas, TX). p-RPA2 (PA5-39809) was from Invitrogen (Carlsbad, CA). POLD1 (15646-1-AP), p-CHK1 (28805-1-AP), E2F1 (66515-1-Ig), Axin2 (20540-1-AP) and TNKS (18030-1-AP) were from Proteintech (Rosemont, IL).

[5] = system: advanced hepatocellular carcinoma; settings: cohort of 10 advanced hepatocellular carcinoma; cited from earlier work
[6] = system: patient-derived tumor colonoids; assay: RNA-seq analysis of patient-derived tumor colonoids treated with DFO; type: cell-based, human; settings: DFO 100 μM in KGMG medium, 4 days
Description: The adenoma colonoids culture was described previously. See Xue, et al., Cell Metab, 2016; 24: pp. 447-461). The culture plates were placed in a 37° C. incubator for 30 min to solidify the Matrigel, followed by the addition of 1 mL serum-free Keratinocyte Growth Media Gold (KGMG, Catalogue: 00195769, Lonza, Basel, Switzerland). After 24 hours of plating, colonoids were treated with DFO (0 or 100 μM) in KGMG for 4 days with fresh media change every other day. At the end of the experiment, culture media was aspirated off, and colonoids were lysed with Trizol to extract RNA.
RNA sequencing libraries were prepared using the TruSeq RNA library prep kit v2 (Illumina) following the manufacturer's recommended protocol. The libraries were sequenced using single-end 50-cycle reads on a HiSeq 4000 sequencer (Illumina) at the University of Michigan DNA Sequencing Core Facility. Raw sequencing read quality was assessed utilizing FastQC. Reads were aligned to the reference human transcriptome (UCSC) using STAR 2.5.2a. Default parameters were used for the alignment, with the exception of “--outFilterMultimapNmax 10” and “--sjdbScore 2”. Expression quantification and differential expression analysis between DFO and control tumor colonoids were conducted using CuffDiff v 2.1.1 using default settings. […]

[7] = mice; cited from earlier work
[8] = cited from earlier work
SW480 cells = assay: MTT assay in SW480 cells; type: cell-based, human; settings: 48 hours
Description: as §1, §2

[9] = humans; cited from earlier work
B-family DNA polymerases = settings: aphidicolin combined with CHK1 inhibitors; cited from earlier work
cancer cells = settings: cited from earlier work
MC38 cells [10] = assay: Ferro-Orange staining of cellular ferrous iron; type: cell-based, murine; settings: FIG. S6D
Description: Cells (2×10^5 cells/well) were plated into 24 well plates. After seeding, pre-warmed DMEM containing 0.5 μM ferroOrange (dojindo, Rockville, MD), was incubated at 37° C. for 30 min. After incubation, the cell images were taken. Representative images were taken using the RFP channel of an Invitrogen™ EVOS™ FL Auto Imaging System (Thermo Fisher Scientific, Waltham, MA). Fluorescence intensity was quantified using a SpectraMax M2 Microplate Reader (Molecular Devices, Radnor, PA) at excitation 543 nm and emission 580 nm. The intensity was normalized with protein concentrations.

O=c1[nH]cc(F)c(=O)[nH]1 [5-FU, 5-fluorouracil]
growth suppressive effect of DFX in vivo (tumor weight) [1]: potentiated | DDR of DFX (immunoblotting) (MC38 cells [2]): potentiated | growth suppressive effect of DFX in vitro (MTT) (MC38 cells [3]): potentiated

CCc1ccc(/C=C2/SC(=S)NC2=O)cc1 [10058-F4]
E2F1 and POLD1 protein ([4]; SW480 cells, c-Myc inhibitor overnight, FIG. S5G): reduced

CC(=O)N(O)CCCCCNC(=O)CCC(=O)N(O)CCCCCNC(=O)CCC(=O)N(O)CCCCCN [DFO, deferoxamine]
severe adverse events [5]: without severe adverse events | decrease of POLD1 gene expression (RNA-seq) [6]: 4.31 fold | decrease of RRM2 gene expression (RNA-seq) [6]: 3.28 fold | circulation half-life [7]: ~5 min | circulation half-life ([8]; humans): approximately 20 min | circulation half-life ([8]; in vivo): extremely short

COc1cccc(OCCCN)c1-c1cc(Nc2cnc(C#N)cn2)n[nH]1 [Prexasertib]
synergistic effect on cell growth (MTT) (SW480 cells; SW480, 10 μM DFO and/or 100 nM Prexasertib, FIG. S7F): synergistic effect was further validated

CNCc1ccc(-c2cc(-c3nc(-c4ccc(S(=O)(=O)C(C)C)cc4)cnc3N)on2)cc1 [VE-822]
synergistic effect on cell growth (MTT) (SW480 cells; SW480 and MC38 cells, 10 μM DFX, 10 uM VE-822 or 100 nM Prexasertib, FIG. S7G, S7H): synergistic effect was further validated

Oc1nc(-c2ccc(C(F)(F)F)cc2)nc2c1CSCC2 [XAV939]
suppressive effect of DFO on c-Myc, E2F1, POLD1 and Cyclin D1 ([4]; SW480 cells, DFO and/or XAV939, FIG. 5N): potentiated | expression of TNKS and Axin2 ([4]; SW480 cells, FIG. 5N): increased | iron-repressed Axin2 ([4]; SW480 cells, FS and/or XAV939, FIG. 5O): rescued | c-Myc, E2F1, POLD1 and Cyclin D1 protein ([4]; SW480 cells, even with iron supplementation, FIG. 5O): suppressed

C[C@@]1(CO)[C@H](O)CC[C@@]2(C)[C@H]1CC[C@H]1C[C@@H]3C[C@@]12CC[C@]3(O)CO [aphidicolin]
toxicity [9]: too toxic to be used in humans | cancer cell proliferation (B-family DNA polymerases): synergistic inhibition

c1ccc(CNC2CC(NCc3ccccn3)CC(NCc3ccccn3)C2)nc1 (stereo not drawn) [tachpyridine, N,N′,N″-tris(2-pyridylmethyl)-cis,cis-1,3,5-triaminocyclohexane]
sensitivity to ionizing radiation induced DNA damage (cancer cells; cancer cells (not noncancer cells)): sensitizes cancer cells | cell cycle (cancer cells; via ATR-dependent activation of CHK1): induces G2 cell cycle arrest

ferrous sulfate [FS]
orange fluorescence signal (cellular ferrous iron) (MC38 cells [10]): greatly increased | rescue of DFO-decreased POLD1 ([4]; HCT116 cells, 100 μM DFO and different doses of FS, FIG. 5E): can rescue
